In series [1] the test system is circulatory parameters of a dog that is awake. Put plainly: Action of organic nitrates on circulatory parameters of the awake dog after intravenous or oral administration. It counts as in vivo. The note with it: awake beagle dogs. The procedure:
Administration of new organic nitrates to detect the nitrate action on the circulatory parameters of a dog that is awake.
The purpose of the test is to determine how the new organic nitrates act on various circulatory parameters of a dog that is awake after intravenous or oral administration. All experiments were carried out on trained beagle dogs; the circulatory parameters were measured with an arterial catheter tip manometer and a balloon catheter introduced into the V. jugularis. In order to describe the action on the arterial system, the systolic, mean and diastolic blood pressure (BP) and heart rate (HR) were measured. […] The low pressure system was measured through the central venous pressure (CVP) and the pulmonary arterial pressure (PAP). The control or reference product used was isosorbid-5-mononitrate (ISM-5).

Series [2] relates to isolated perfused rat heart. Put plainly: Coronary flow increase and tolerance in isolated perfused working rat heart. As to conditions: for Activity Drop in flow / Maximum Coronary Increase: 100 μM, isolated perfused rat hearts, n = 7; for Maximum Coronary Increase: x ± SEM. The source says:
Determining the lack of tolerance to the action of new organic nitrates on increasing coronary flow in isolated perfused heart.
The purpose of the present investigation was to study the action and the development of tolerance to new organic nitrate compounds on isolated perfused rat heart. For this purpose, a rat heart was isolated and prepared as a "working heart".
In this experimental arrangement, the heart performs defined circulatory work from which a defined oxygen consumption and coronary flow result. The action of nitrate-like compounds can be measured in this model by the drug-induced coronary flow increase.
The resistance of the coronary vessels on an isolated working rat heart was chosen as the parameter for the detection of the action of the nitrate. A rat heart with a weight of about one gram is perfused through the left auricle with a plasma-like solution which contains nutrients and is saturated with oxygen. The left ventricle pumps the solution into the aorta against a defined pressure. Corresponding to the physiological conditions, a part of this solution flows through the coronary vessels for supplying the heart itself. At a defined work of the heart, this fraction, from which the coronary resistance can be calculated, is constant. The addition of a nitrate or other coronary dilating drug causes a drop in this coronary resistance. Therefore, if a constant concentration of an organic nitrate is introduced to the heart, then, after an initial decrease of the resistance, a partial loss of activity occurs within 20 minutes. On this model, the substances also show a coronary dilating effect, but this is not followed by a loss in activity. The maximum drop of the coronary resistance is still completely present after 60 minutes. The tested compounds were compared in an equimolar dosage with 10^-4 M nitroglycerin trinitrate. Continuous infusion of nitroglycerin causes a rapid coronary flow increase by 7.6±1.88 ml/min gww (x±SD). […] Upon further perfusion, the action of nitroglycerin is unchanged. In this experimental model, the new nitrates also show a coronary flow increase, but this is followed by only a very slight drop in the activity.

Series [3] concerns guinea pig heart. Put plainly: Coronary flow in working heart model (guinea pig heart). As to conditions: for EC25: Cavia porcellus, read-out: concentration for a coronary flow increase of 25%. The protocol:
Finally, the action of N-(3-nitratopivaloyl)-cysteine ethyl ester (Nitrato-Piv-Cy-Et) was characterized on guinea pig heart. […] A flow increase of 25% is achieved even with 380 μg of nitrato-Piv-Cy-Et per liter of perfusion medium, corresponding to 1.3 μmole per liter. The corresponding concentration for glycerol trinitrate (GTN) with 5 mg/liter is at least a factor of 12 times higher. Thus, in the case of Nitrato-Piv-Cy-Et we are dealing with an especially active compound with regard to the vessels.

The target in series [4] is T1, isolated guanyl cyclase (Homo sapiens, UniProt Q02153).
T1 sequence (Q02153 1-619): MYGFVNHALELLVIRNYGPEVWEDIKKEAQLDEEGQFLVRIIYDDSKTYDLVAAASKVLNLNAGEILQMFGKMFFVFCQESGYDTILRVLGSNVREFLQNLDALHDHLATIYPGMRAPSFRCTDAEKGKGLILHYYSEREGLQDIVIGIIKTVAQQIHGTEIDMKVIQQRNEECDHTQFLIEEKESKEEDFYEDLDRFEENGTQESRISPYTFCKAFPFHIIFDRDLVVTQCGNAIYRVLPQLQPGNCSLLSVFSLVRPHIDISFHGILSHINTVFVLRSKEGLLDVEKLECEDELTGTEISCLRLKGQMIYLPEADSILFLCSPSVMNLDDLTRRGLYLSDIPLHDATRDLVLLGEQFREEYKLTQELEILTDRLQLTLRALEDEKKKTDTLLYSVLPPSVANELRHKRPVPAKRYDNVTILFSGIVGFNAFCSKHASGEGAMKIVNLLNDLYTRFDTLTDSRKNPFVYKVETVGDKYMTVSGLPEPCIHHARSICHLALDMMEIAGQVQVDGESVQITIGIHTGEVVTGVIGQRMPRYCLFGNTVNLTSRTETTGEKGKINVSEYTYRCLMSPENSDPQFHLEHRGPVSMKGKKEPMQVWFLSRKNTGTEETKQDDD
T1 sequence (Q02108 1-690 partner): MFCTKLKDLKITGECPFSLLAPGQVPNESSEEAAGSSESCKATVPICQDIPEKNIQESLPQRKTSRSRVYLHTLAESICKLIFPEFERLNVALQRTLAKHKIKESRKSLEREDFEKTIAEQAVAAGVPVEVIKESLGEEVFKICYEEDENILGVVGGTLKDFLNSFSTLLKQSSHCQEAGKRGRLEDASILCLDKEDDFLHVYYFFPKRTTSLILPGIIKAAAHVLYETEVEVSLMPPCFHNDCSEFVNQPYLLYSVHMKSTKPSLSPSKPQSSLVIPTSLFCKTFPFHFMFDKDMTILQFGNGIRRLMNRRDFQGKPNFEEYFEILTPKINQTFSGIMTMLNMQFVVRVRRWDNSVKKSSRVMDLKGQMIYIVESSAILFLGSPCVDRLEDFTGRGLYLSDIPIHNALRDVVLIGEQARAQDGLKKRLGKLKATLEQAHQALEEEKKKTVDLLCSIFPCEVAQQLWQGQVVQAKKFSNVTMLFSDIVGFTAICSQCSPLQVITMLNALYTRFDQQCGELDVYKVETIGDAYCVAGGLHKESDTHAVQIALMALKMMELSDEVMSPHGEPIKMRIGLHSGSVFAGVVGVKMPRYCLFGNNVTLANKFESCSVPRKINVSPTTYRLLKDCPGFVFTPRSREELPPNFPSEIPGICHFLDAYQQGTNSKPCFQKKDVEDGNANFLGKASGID
Put plainly: Activation of isolated guanyl cyclase (cGMP formation). It counts as biochemical. The note with it: isolated enzyme; for pEC50: read-out: concentration necessary for one-half of the maximum activity (ED50) of guanyl cyclase. From the text:
The concentration necessary for one-half of the maximum activity (ED50) of guanyl cyclase is around 200 μmole/liter. The corresponding value for GTN (in the presence of 5 mmoles/liter of cysteine) is approximately 80 μmoles/liter.

Where [5] appears, read: oral and intravenous administration.
[6] abbreviates: continuous infusion, 10^-4 M, isolated working rat heart.
The mark [7] stands for this setting: working heart model, guinea pig.

SMILES strings stand for the structures. pEC50: −log10 of the molar value. Like-named read-outs stand apart in the source and are kept apart here.

For `O=[N+]([O-])O[C@@H]1CO[C@H]2[C@@H]1OC[C@@H]2O` [ISM-5, isosorbid-5-mononitrate], in series [1] (setting [5]), the “extensibility of the air chamber” value is “increased significantly”, the “low pressure system pressure” value was “decreased”, the mean pressure entry was “hardly effected” and the systolic blood pressure entry is listed as “slight decrease”.
In the case of `O=[N+]([O-])OCC(CO[N+](=O)[O-])O[N+](=O)[O-]` [nitroglycerine, glycerol trinitrate, reference compound], in series [2], the “Activity Drop in flow” value was found to be 56.0% and the “Maximum Coronary Increase” value is reported as 7.6 ± 0.71 ml/min gww. Moreover, in series [2] (setting [6]), the “coronary flow increase (x±SD)” value is reported as 7.6±1.88 ml/min gww and the “decrease of flow within 20 minutes” value is on record as 55.9%. In addition, in series [3] (setting [7]), the EC25 amounted to 5 µg/mL and the “factor by which the concentration for 25% flow increase is higher than for Nitrato-Piv-Cy-Et” value was ≥ 12 times. In addition, in series [4] (in the presence of 5 mmoles/liter of cysteine), the pEC50 was ~4.10.
As for `CCOC(=O)[C@H](CCSC)NC(=O)C(C)(C)CO[N+](=O)[O-]` [N-(3-nitratopivaloyl)-methionine ethyl ester], in series [2], the “Activity Drop in flow” value came out at 7.0% and the “Maximum Coronary Increase” value was 8.3 ± 0.92 ml/min gww. Moreover, the “bioavailability (comparison between intravenous and oral administration)” value in series [1] was “good bioavailability”.
On to `CCOC(=O)[C@H](CS)NC(=O)C(C)(C)CO[N+](=O)[O-]` [N-(3-nitratopivaloyl)-cysteine ethyl ester], for which, in series [2], the “Activity Drop in flow” value came to 5.2% and the “Maximum Coronary Increase” value was determined as 6.6 ± 0.88 ml/min gww. Also, in series [3] (working heart model, guinea pig, converted from μg per liter), the EC25 was 1.3 µM. The EC25 in series [3] (working heart model, guinea pig, per liter of perfusion medium) is 0.38 µg/mL. For the same molecule, the “weakening of the coronary dilating effect (tolerance development)” value in series [3] (one hour drenching perfusion, any dose, guinea pig heart) is given as “No weakening of the coronary dilating effect”. Moreover, in series [3] (working heart model, guinea pig, very low dose range), the “effect on coronary flow” value is “concentration-dependent increase of the coronary flow”. For the same molecule, in series [1], the “bioavailability (comparison between intravenous and oral administration)” value was “good bioavailability”; the “course of action on circulatory parameters” value is reported as “typical of a nitrate”. In series [4], the “activation of guanyl cyclase (formation of cGMP per unit time)” value is on record as “concentration-dependent activation of the enzyme” and the pEC50 is ~3.70. In addition, the “activation of guanyl cyclase without cysteine” value in series [4] (in vitro, absence of cysteine) is given as “activation occurs in vitro even in the absence of cysteine”.

The values above are taken from patent US5428061A, “Organic nitrates and method for their preparation” (Schwarz Pharma AG, priority 1988, dated 1995).
